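Grown in 96-well plates, cells were treated for 48 hours with each compound at five concentrations. Insufficient inhibition: endpoint recorded as highest concentration tested. TGI marks complete inhibition of growth.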
How the values were obtained:
Assay in all cases: NCI anticancer screen, dose series, 48 h
[1] = tested on: OVCAR-4 ovarian
[2] = tested on: T-47D breast
[3] = tested on: CAKI-1 renal
[4] = tested on: OVCAR-5 ovarian
[5] = tested on: SNB-19 CNS
[6] = tested on: OVCAR-8 ovarian
[7] = tested on: U251 CNS
[8] = tested on: MDA-MB-435
[9] = tested on: HCT-15 colon
[10] = tested on: MDA-MB-231 breast
[11] = tested on: HCT-116 colon
[12] = tested on: IGROV1 ovarian
[13] = tested on: HL-60(TB) leukemia
[14] = tested on: NCI-H460 lung
[15] = tested on: A549 NSCLC
[16] = tested on: M14 melanoma
[17] = tested on: PC-3 prostate
[18] = tested on: UACC-62 melanoma
[19] = tested on: K-562 leukemia
[20] = tested on: 786-0 renal
[21] = tested on: MDA-N
[22] = tested on: NCI/ADR-RES ovarian
[23] = tested on: UO-31 renal
[24] = tested on: SK-OV-3 ovarian
[25] = tested on: NCI-H23 lung
[26] = tested on: RXF 393 renal
[27] = tested on: MALME-3M melanoma
[28] = tested on: SF-539 CNS
[29] = tested on: NCI-H522 lung
[30] = tested on: A498 renal
[31] = tested on: HS 578T breast
[32] = tested on: TK-10 renal
[33] = tested on: SN12C renal
[34] = tested on: HOP-92 NSCLC
[35] = tested on: SK-MEL-5 melanoma
[36] = tested on: ACHN renal
[37] = tested on: MCF7 breast
[38] = tested on: SK-MEL-28 melanoma
[39] = tested on: HCC-2998 colon
[40] = tested on: SW-620 colon
[41] = tested on: UACC-257 melanoma
[42] = tested on: NCI-H226 lung
[43] = tested on: DU-145 prostate
[44] = tested on: SF-295 CNS
[45] = tested on: BT-549 breast
[46] = tested on: SK-MEL-2 melanoma
[47] = tested on: COLO 205 colon
[48] = tested on: KM12 colon
[49] = tested on: OVCAR-3 ovarian
[50] = tested on: EKVX NSCLC
[51] = tested on: CCRF-CEM leukemia
[52] = tested on: SF-268 CNS
[53] = tested on: HT29 colon
[54] = tested on: MOLT-4 leukemia
[55] = tested on: LOX IMVI melanoma

Measured: TGI

CC(C#N)NCc1ccc(C(C)NC(C)C#N)cc1 (stereo not given)
> 100 µM: all assays above
